Test results: US7468270B2, “Probiotic strains, a process for the selection of them, compositions thereof, and their use” (Puleva Biotech, S.A., priority 2003, dated 2008)

Test system: Salmonella typhmurium and Escherichia coli
Assay: Production of antimicrobial metabolites, agar well diffusion assay
Format: cell-based
Conditions: dilution of each metabolic acid at pH 4.5; data not shown
Experimental: The probiotic strains of this invention were assessed for their capability to produce antimicrobial metabolites using an agar well diffusion assay. MRS agar plates containing 10^6 cfu/ml of different pathogenic bacteria strain (Salmonella typhmurium and Escherichia coli) were prepared. Wells, with a diameter of 5 mm, where then cut in the agar using a sterile cork-borer. Then, 50 μl of a 2 fold concentrate supernatant of each probiotic strain culture were added to the wells and allowed to diffuse into the agar during a 2 hours preincubation period at 4° C., followed by aerobic incubation of the plates at 37° C. for 16-18 hours. The antimicrobial activity of each supernatant was considered high if the diameter of the inhibition hallo for both pathogenic bacteria strains was >12, moderate between 8 and 12, and slight <8 (FIG. 11)
Moreover, it was also tested if the antimicrobial activity of the supernatants was due to a antimicrobial substance or to the production of metabolic acids. […] It was also tested the antimicrobial capabilities of supernatants obtained from bacterial cultures using glucose or lactose as a carbohydrate source.

Row | SMILES | Inhibition of growth of Salmonella or E. coli by a dilution of metabolic acid
1 | CC(=O)O [acetic] | None of these situations inhibited the growth
2 | CCCC(=O)O [butyric, butyric acid] | None of these situations inhibited the growth
